Where two headings read alike, the source gives them in different places.
What was measured:
Assay in all cases: biochemical
Parameters in all cases: Thermal shift (DSF, SYPRO Orange) Tm shift of recombinant kinase domains at 10 uM compound
SRC = SRC (Homo sapiens, UniProt P12931)
MAPK15 = molecular target: T1, MAPK15 (Homo sapiens, UniProt Q8TD08)
T1 sequence (Q8TD08 1-544): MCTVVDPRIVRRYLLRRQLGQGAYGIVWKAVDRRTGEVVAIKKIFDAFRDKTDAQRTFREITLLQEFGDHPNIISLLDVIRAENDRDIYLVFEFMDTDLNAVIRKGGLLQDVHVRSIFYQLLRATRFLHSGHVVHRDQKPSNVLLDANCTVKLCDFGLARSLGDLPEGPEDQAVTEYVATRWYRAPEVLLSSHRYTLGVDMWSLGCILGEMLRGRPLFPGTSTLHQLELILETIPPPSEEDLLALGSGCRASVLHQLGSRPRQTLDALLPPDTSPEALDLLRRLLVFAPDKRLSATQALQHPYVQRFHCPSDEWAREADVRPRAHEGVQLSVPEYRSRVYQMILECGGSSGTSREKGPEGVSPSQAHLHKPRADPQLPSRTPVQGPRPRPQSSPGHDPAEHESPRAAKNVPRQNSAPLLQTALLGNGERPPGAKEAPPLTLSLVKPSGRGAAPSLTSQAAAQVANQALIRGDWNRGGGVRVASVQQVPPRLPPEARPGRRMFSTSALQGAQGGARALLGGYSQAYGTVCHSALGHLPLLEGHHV

FGFR2 = FGFR2 (Homo sapiens, UniProt P21802)
DCAMKL1 = molecular target: T2, DCAMKL1 (Homo sapiens, UniProt O15075)
T2 construct: gene DCLK1
T2 sequence (O15075 1-740): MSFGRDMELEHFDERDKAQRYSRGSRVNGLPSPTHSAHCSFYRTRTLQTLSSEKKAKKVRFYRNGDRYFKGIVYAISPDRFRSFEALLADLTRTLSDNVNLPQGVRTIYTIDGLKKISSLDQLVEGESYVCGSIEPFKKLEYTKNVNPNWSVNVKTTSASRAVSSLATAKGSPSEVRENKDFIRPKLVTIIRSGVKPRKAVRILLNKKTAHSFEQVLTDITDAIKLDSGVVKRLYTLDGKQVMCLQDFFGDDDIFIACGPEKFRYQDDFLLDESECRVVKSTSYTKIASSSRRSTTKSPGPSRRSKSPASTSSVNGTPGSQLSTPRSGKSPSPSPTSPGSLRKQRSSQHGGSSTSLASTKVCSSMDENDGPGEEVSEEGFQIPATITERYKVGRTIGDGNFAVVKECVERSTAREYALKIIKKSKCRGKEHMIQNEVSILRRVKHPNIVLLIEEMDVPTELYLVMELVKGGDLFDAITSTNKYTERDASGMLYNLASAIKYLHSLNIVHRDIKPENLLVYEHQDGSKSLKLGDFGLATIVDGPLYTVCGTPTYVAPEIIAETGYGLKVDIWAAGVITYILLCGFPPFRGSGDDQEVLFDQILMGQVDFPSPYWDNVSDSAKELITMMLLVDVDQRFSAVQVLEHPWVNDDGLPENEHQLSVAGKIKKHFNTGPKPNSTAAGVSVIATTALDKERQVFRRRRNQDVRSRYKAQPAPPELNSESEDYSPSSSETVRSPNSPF

FGFR1 = FGFR1 (Homo sapiens, UniProt P11362)
CLK1 = CLK1 (Homo sapiens, UniProt P49759)
CASK = molecular target: T3, CASK (Homo sapiens, UniProt O14936)
T3 sequence (O14936 1-926): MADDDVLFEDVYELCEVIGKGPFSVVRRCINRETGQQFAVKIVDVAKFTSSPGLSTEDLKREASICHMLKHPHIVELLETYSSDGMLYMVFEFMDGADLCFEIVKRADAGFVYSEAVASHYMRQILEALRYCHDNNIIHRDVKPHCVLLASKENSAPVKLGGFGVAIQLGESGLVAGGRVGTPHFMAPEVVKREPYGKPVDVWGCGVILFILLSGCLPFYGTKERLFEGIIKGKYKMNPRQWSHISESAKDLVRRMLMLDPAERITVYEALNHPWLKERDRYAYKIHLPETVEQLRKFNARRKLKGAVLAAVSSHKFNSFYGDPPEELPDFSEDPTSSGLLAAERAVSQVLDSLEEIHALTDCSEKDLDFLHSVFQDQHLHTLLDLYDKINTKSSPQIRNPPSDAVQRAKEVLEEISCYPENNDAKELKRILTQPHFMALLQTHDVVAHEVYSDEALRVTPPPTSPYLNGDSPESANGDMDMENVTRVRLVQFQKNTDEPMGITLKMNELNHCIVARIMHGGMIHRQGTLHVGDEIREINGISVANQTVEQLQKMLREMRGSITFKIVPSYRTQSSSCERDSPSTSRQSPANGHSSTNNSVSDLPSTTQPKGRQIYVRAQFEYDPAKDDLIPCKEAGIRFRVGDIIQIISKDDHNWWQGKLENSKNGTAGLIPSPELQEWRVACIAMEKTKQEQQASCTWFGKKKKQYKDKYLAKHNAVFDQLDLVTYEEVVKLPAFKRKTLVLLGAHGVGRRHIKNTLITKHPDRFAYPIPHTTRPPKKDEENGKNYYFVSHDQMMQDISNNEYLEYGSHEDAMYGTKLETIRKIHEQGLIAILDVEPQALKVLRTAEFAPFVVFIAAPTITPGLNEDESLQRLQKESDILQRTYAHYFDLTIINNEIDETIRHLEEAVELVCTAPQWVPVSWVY

CLK1, sequence (P49759 whole entry): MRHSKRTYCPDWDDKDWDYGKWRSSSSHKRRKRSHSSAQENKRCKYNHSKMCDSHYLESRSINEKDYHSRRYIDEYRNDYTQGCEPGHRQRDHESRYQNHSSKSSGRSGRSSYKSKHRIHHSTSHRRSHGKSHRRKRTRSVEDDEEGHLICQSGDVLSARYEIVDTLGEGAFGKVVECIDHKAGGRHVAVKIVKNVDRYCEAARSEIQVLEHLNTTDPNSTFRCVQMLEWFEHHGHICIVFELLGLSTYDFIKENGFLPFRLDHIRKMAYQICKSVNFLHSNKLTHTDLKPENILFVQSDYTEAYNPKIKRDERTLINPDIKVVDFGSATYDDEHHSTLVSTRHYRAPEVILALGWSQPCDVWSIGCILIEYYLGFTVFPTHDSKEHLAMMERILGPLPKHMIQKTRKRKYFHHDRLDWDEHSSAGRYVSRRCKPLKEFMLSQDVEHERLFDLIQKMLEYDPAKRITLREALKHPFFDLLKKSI
FGFR2, sequence (P21802 whole entry): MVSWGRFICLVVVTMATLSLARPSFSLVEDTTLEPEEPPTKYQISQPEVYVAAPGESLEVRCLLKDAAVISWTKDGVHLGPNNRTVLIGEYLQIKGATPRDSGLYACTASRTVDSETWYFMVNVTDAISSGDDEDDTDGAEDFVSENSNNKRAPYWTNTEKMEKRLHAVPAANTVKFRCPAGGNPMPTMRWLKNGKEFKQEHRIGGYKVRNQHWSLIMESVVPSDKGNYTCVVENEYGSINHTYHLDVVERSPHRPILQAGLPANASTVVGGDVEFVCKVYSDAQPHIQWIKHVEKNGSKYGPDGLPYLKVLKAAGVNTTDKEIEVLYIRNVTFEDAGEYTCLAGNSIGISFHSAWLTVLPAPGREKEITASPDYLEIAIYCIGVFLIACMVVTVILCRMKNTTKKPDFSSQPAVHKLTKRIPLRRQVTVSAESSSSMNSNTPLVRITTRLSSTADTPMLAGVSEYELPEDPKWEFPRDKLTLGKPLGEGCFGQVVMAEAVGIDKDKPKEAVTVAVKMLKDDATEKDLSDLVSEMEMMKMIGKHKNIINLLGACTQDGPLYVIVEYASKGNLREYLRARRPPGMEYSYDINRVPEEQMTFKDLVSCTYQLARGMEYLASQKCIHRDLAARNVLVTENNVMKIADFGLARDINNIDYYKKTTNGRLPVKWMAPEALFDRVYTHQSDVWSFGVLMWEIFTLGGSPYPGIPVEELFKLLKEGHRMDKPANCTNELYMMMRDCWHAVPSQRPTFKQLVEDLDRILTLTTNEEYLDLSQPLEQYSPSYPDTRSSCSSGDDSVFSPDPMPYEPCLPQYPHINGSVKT
SRC, sequence (P12931 whole entry): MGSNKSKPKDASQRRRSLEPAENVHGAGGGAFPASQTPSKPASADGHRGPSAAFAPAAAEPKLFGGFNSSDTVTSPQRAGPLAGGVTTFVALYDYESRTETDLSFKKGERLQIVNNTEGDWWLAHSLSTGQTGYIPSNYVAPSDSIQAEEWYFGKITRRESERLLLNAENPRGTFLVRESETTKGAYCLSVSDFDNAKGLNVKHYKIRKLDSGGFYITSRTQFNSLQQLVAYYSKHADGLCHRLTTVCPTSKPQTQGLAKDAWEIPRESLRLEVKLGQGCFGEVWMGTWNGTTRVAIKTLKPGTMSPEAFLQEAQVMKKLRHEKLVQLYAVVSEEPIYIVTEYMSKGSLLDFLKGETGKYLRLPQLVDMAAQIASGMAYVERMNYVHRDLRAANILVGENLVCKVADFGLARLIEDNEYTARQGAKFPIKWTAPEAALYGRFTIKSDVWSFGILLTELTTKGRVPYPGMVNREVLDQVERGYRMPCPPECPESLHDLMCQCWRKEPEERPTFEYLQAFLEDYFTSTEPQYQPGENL
FGFR1, sequence (P11362 whole entry): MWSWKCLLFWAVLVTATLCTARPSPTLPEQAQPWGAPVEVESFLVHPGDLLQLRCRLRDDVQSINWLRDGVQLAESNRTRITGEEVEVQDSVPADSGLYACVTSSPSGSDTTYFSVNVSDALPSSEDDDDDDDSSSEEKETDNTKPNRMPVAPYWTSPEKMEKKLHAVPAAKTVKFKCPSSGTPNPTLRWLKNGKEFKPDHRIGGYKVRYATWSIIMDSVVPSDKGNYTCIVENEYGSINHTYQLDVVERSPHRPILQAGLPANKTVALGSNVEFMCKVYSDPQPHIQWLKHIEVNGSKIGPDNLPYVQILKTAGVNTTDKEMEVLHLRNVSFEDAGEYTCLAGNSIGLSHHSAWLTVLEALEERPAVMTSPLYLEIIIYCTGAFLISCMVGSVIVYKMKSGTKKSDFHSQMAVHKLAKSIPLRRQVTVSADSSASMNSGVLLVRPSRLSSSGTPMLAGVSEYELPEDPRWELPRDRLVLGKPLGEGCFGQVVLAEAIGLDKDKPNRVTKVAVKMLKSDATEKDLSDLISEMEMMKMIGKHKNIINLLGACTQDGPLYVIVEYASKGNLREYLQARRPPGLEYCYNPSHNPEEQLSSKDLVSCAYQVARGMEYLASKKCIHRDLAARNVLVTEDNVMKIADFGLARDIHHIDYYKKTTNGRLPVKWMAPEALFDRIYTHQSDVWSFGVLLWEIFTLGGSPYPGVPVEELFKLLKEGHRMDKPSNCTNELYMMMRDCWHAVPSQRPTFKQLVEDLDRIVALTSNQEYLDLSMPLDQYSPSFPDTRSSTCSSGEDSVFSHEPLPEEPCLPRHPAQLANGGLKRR

CC(C)Oc1ccc2ccn(-c3cncc(-c4ccc(C(=O)O)cc4)n3)c2c1 [6c] showed a ΔTm at 10 µM (SRC; read-out: 6c) of 3 °C, a ΔTm at 10 µM (MAPK15; read-out: 6c) of 15 °C and a ΔTm at 10 µM (FGFR2; read-out: 6c) of 0 °C. It also gave a ΔTm at 10 µM (DCAMKL1; read-out: 6c) of 3 °C, a ΔTm at 10 µM (FGFR1; read-out: 6c) of 0 °C and a ΔTm at 10 µM (CLK1; read-out: 6c) of 7 °C. For the same molecule, the ΔTm at 10 µM (CASK; read-out: 6c) was 1 °C.
Work on COc1ccc(OC(C)C)cc1Nc1cncc(-c2ccc(C(=O)O)cc2)n1 [7c] yielded a ΔTm at 10 µM (SRC; read-out: 7c) of 3 °C, a ΔTm at 10 µM (MAPK15; read-out: 7c) of 10 °C and a ΔTm at 10 µM (FGFR2; read-out: 7c) of 0 °C. For the same molecule, the ΔTm at 10 µM (DCAMKL1; read-out: 7c) was 3 °C, the ΔTm at 10 µM (FGFR1; read-out: 7c) was 0 °C and the ΔTm at 10 µM (CLK1; read-out: 7c) was 7 °C. It also gave a ΔTm at 10 µM (CASK; read-out: 7c) of 0 °C.
In the case of CC(C)Nc1ccc2cnn(-c3cncc(-c4ccc(C(=O)O)cc4)n3)c2c1 [compound 2, 2], the ΔTm at 10 µM (SRC; read-out: 2) is reported as 3 °C, the ΔTm at 10 µM (MAPK15; read-out: 2) is reported as 12 °C and the ΔTm at 10 µM (FGFR2; read-out: 2) is reported as 0 °C. The ΔTm at 10 µM (DCAMKL1; read-out: 2) was 4 °C, the ΔTm at 10 µM (FGFR1; read-out: 2) was 1 °C and the ΔTm at 10 µM (CLK1; read-out: 2) was 7 °C. The ΔTm at 10 µM (CASK; read-out: 2) was 0 °C.
